{"source": "patent US10898476B2", "about": "“Heat shock proteins and cholesterol homeostasis” (Orphazyme A/S, priority 2016, dated 2021)", "key": {"[1]": {"test_system": "ABCA1", "assay": "ABCA1 mRNA levels by qRT-PCR in macrophage foam cells", "assay_type": "cell-based, human", "conditions": "during cholesterol loading and efflux; normalized to 18S mRNA; FIG. 2a", "protocol": "(§1) FIG. 2 Effect of rHsp70 on ABCA1 transcript and protein levels in primary human macrophage foam cells. Macrophages were loaded with acLDL followed by cholesterol efflux to complete medium in the absence or presence of rHSP70. (a) The ABCA1 mRNA levels were measured by qRT-PCR. Data are mean±SEM, n=6 blood donors with triplicate measurements. (b) Cells were harvested and equal amounts of protein separated by SDS-PAGE and analyzed by Western blotting using a polyclonal anti-ABCA1 antibody. ProAct staining was used as a loading control. Data are mean±SEM, n=7 blood donors.\n(§2) Cells were collected in PBS and centrifuged at 2000 rpm for 10 min at 4° C. Cell pellets were lysed in either RNA lysis buffer or in RIPA buffer containing protease inhibitors for transcript or protein analysis.\nTotal RNA was isolated using NucleoSpin RNA isolation kit (Macherey-Nagel). 1.5 μg of total RNA was transcribed using SuperScript VILO cDNA synthesis kit (Invitrogen). abca1 primers Fwd 5′-[…], Rev 5′-[…] (Sigma) and 18S primers Fwd 5′-[…], Rev 5′-CCCCGCGAGCACAGA (Sigma) were used for qRT-PCR with Light Cycler 480 SYBER Green I Master Mix (Roche). Reaction mixtures were prepared according to the manufacturer's instructions. Reaction steps: 95° C. 15 min and 40 cycles of 95° C. 15 sec, 60° C. 30 sec and 72° C. 10 sec. […] Relative quantities of mRNAs were normalized to 18S mRNA."}, "[2]": {"test_system": "acid sphingomyelinase (ASMase)", "conditions": "via binding to bismonoacylglycerophosphate (BMP); Mahalka et al, 2014; cited from earlier work"}, "[3]": {"test_system": "LXR targets (ABCA1, GRAMD1A, FABP4)", "assay": "Western blotting of LXR targets in macrophage foam cells", "assay_type": "cell-based, human", "conditions": "during cholesterol efflux; FIG. 6", "text": "FIG. 6 The effect of rHSP70 on protein levels of selected LXR targets in primary human macrophage foam cells. Cells (as described for FIG. 5) were harvested and equal amounts of protein separated by SDS-PAGE and analyzed by Western blotting. Data are mean±SEM, n=7 blood donors. *: p<0.05; **: p<0.01. (a) ABCA1, (b) GRAMD1A, (c) FABP4.\n(§3) Effect of rHsp70 on the transcript and protein levels of LXR targets in primary human macrophage foam cellsMacrophage foam cells from 4 individual blood donors were incubated −/+rHSP70 during cholesterol efflux and RNAs were extracted. RNA sequencing was performed by Illumina NextSeq sequencer. RNASeq results were analysed using “Gene Set Enrichment Analysis”."}, "[4]": {"test_system": "ABCA1", "assay": "ABCA1 protein levels by Western blotting in macrophage foam cells", "assay_type": "cell-based, human", "conditions": "during cholesterol loading and efflux; FIG. 2b", "protocol": "as §1, §2\nProtein lysates were cleared by centrifugation at 12000 rpm for 10 min at 4° C. Protein concentration was determined using the Bio-Rad protein assay kit. Equal amount of total protein was loaded on 8% SDS-polyacrylamide gel and Western blotting was performed using polyclonal anti-ABCA1 antibody (1:500, Novus Biologicals). The primary antibody was detected with anti-rabbit secondary antibody (1:2000, Sigma). The blots were developed using the Enhanced Chemiluminiscense kit (Amersham). Protein bands were normalized to Proact membrane stain (Amresco). Quantitation of protein bands was performed using ImageJ program."}, "[5]": {"test_system": "primary murine bone marrow macrophage foam cells", "assay": "BODIPY-cholesterol efflux to 6% HDL enriched serum, confocal imaging", "assay_type": "cell-based", "conditions": "24 h efflux to 6% HDL enriched serum; FIG. 4", "protocol": "FIG. 4 rHSP70 speeds up BODIPY-cholesterol efflux from primary murine macrophage foam cells. Primary murine bone marrow macrophage foam cells were incubated with BODIPYcholesteryl linoleate-LDL particles. Cholesterol efflux was performed for 24 h to 6% HDL enriched serum in the presence or absence of rHSP70. Images were taken using Leica SP8 scanning confocal microscope at the indicated time points. (a) Total cell BODIPY-cholesterol intensity changes were calculated using ImageJ and data normalized to 0 h. (b) Representative images of BODIPY-cholesterol intensity changes over time. n=60-100 cells/condition. *: p<0.05.\nrHSP70 speeds up BODIPY-cholesterol efflux from primarymurine macrophage foam cells. Primary murine bone marrow macrophage foam cells were incubated with BODIPYcholesteryl linoleate-LDL particles. Cholesterol efflux was performed for 24 h to 6% HDL enriched serum in the presence or absence of rHSP70."}, "[6]": {"test_system": "LXR targets such as ABCA1, FABP4 and GRAMD1A", "assay": "RNA sequencing of LXR targets in macrophage foam cells", "assay_type": "cell-based, human", "conditions": "during cholesterol efflux; 4 blood donors; FIG. 5", "protocol": "FIG. 5 The effect of rHSP70 on transcript levels of selected LXR targets in primary human macrophage foam cells. Macrophage foam cells from 4 individual blood donors were incubated −/+rHSP70 during cholesterol efflux and RNAs were extracted. RNA sequencing was performed by Illumina NextSeq sequencer. RNASeq results were analysed using “Gene Set Enrichment Analysis”. Selected LXR pathway targets modulated by rHSP70 administration were plotted against their transcript count numbers. Front row: FABP4; middle row: GRAMD1A; back row: ABCA1.\nas §3"}, "[7]": {"test_system": "primary human macrophage foam cells", "assay": "Cholesterol efflux from acLDL-loaded macrophage foam cells to complete medium, lipids by TLC", "assay_type": "cell-based", "protocol": "FIG. 1 rHSP70 stimulates the removal of cholesterol from primary human macrophage foam cells. Differentiated human macrophages were loaded with acLDL (50 μg/mL) for 3 days. Cholesterol efflux was performed for 12 h to complete medium in the presence or absence of rHSP70 (20 ug/ml). Lipids were analyzed by TLC. Pooled data from 8 blood donors from 8 independent experiments and three technical replicates, mean±SEM.\nFIG. 3 The effect of rHsp70 dose and BMP binding on cholesterol efflux from primary human macrophage foam cells. Macrophages were loaded with acLDL followed by cholesterol efflux to complete medium in the absence or presence of rHSP70 as in FIG. 1. Either wild-type or W90F mutant (mut) rHsp70 was employed at the final concentrations of 20 or 200 μg/mL Pooled data from 2 individual donors with 3 technical replicates, mean±SEM.\nHuman primary white blood cells, isolated from healthy blood donors were acquired form the Finnish Red Cross (permit number 21/2015). Peripheral blood mononuclear cells (PBMCs) were isolated by Ficoll layering (Boyum, A., 1964) with Ficoll-Paque Premium (GE Healthcare). […]\nCells were harvested in 2% NaCl solution and lipids were extracted as described in Bligh and Dyer (1959). […] The TLC plate was charred and free cholesterol and cholesterol ester bands were quantitated using ImageJ. […]"}}, "data": [{"substance": "rHSP70: His-tagged recombinant wildtype Hsp70 supplied by Orphazyme ApS, Denmark", "values": [{"measurement": "ABCA1 transcript level", "setting": "[1]", "value": "significant increase"}, {"measurement": "activity of acid sphingomyelinase (ASMase)", "setting": "[2]", "value": "stabilize and enhance"}, {"measurement": "protein levels of LXR targets", "setting": "[3]", "value": "These changes can also be seen at the protein level"}, {"measurement": "ABCA1 protein level", "setting": "[4]", "value": "significant increase"}, {"measurement": "BODIPY-cholesterol efflux", "setting": "[5]", "value": "speeds up"}, {"measurement": "transcript levels of LXR targets", "setting": "[6]", "value": "major transcriptional re-programming"}, {"measurement": "cholesterol removal (efflux) from foam cells", "setting": "[7]; 20 ug/ml, 16 h pretreatment during loading, then 12 h efflux to complete medium (RPMI, 10% FBS), FIG. 1, FIG. 3", "value": "significantly enhanced"}, {"measurement": "whether a higher dosage improves the cholesterol efflux promoting effect", "setting": "[7]; 200 ug/ml compared with 20 ug/ml, before and during 12 h efflux, FIG. 3", "value": "found not to be the case"}]}]}
